This assay deals with L1210 leukemia ip in BDF1 mice, survival T/C. In words: NCI In Vivo Anticancer Drug Screen. Data for tumor model L1210 Leukemia (intraperitoneal) in B6D2F1 (BDF1) mice. The note with it: endpoint: mean survival time, higher = longer survival. The procedure, abridged: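 Mice bearing the transplanted tumor received compound or vehicle. Survival of the treated group was divided by that of the vehicle-treated control group to give the ratio.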

[1] abbreviates: dose: 100.0 mg/kg/injection, schedule: Q01DX009 (ip), vehicle: saline with Tween-80.
Where [2] appears, read: dose: 200.0 mg/kg/injection, schedule: Q01DX009 (ip), vehicle: saline with Tween-80.
Setting [3] is: dose: 400.0 mg/kg/injection, schedule: Q01DX009 (ip), vehicle: saline with Tween-80.
The mark [4] stands for this setting: dose: 50.0 mg/kg/injection, schedule: Q01DX009 (ip), vehicle: saline with Tween-80.

From PubChem BioAssay AID248 (DTP/NCI, 2004) come the findings set out here.

“And” between values parts separate entries of the source, which are not always exact repeats. Identical values can stand only once. Toxic doses and inconclusive results are not listed.

Take `c1ccc(C(c2ccccc2)[P+](c2ccccc2)(c2ccccc2)c2ccccc2)cc1`: the T/C (dose: 0.75 mg/kg/injection, schedule: Q01DX005 (ip), vehicle: gum acacia) is 106 % of control and 110 % of control; the T/C (dose: 1.5 mg/kg/injection, schedule: Q01DX005 (ip), vehicle: gum acacia) was 106 % of control; the T/C (dose: 1.5 mg/kg/injection, schedule: Q01DX009 (ip), vehicle: gum acacia) was 111 % of control; the T/C (dose: 3.0 mg/kg/injection, schedule: Q01DX009 (ip), vehicle: gum acacia) is 111 % of control; the T/C (dose: 3.12 mg/kg/injection, schedule: Q04DX002 (ip), vehicle: gum acacia) is 100 % of control; the T/C (dose: 6.25 mg/kg/injection, schedule: Q01DX005 (ip), vehicle: gum acacia) is 95 % of control. The T/C is 95 % of control (dose: 6.25 mg/kg/injection, schedule: Q04DX002 (ip), vehicle: gum acacia); 111 % of control and 92 % of control (dose: 12.5 mg/kg/injection, schedule: Q04DX002 (ip), vehicle: gum acacia).

For the molecule `c1ccc(SCCCCSc2ccccc2)cc1`, the T/C was 107 % of control (dose: 75.0 mg/kg/injection, schedule: Q01DX009 (ip), vehicle: saline); 95 % of control (dose: 75.0 mg/kg/injection, schedule: Q04DX003 (ip), vehicle: saline); 90 % of control (dose: 150.0 mg/kg/injection, schedule: Q01DX009 (ip), vehicle: saline); 100 % of control (dose: 150.0 mg/kg/injection, schedule: Q04DX003 (ip), vehicle: saline); 93 % of control (dose: 300.0 mg/kg/injection, schedule: Q01DX009 (ip), vehicle: saline); 97 % of control (dose: 300.0 mg/kg/injection, schedule: Q04DX003 (ip), vehicle: saline).

As for `NCCN1C(=O)C2C3CCC(O3)C2C1=O` (stereo not drawn), the T/C (dose: 100.0 mg/kg/injection, schedule: Q01DX001 (ip), vehicle: carboxymethylcellulose (CMC)) is 97 % of control and 107 % of control; the T/C (dose: 100.0 mg/kg/injection, schedule: Q04DX002 (ip), vehicle: carboxymethylcellulose (CMC)) was 97 % of control and 88 % of control; the T/C (dose: 100.0 mg/kg/injection, schedule: Q04DX003 (ip), vehicle: carboxymethylcellulose (CMC)) is 101 % of control and 112 % of control; the T/C (dose: 200.0 mg/kg/injection, schedule: Q01DX001 (ip), vehicle: carboxymethylcellulose (CMC)) was 97 % of control and 104 % of control; the T/C (dose: 200.0 mg/kg/injection, schedule: Q04DX002 (ip), vehicle: carboxymethylcellulose (CMC)) was 93 % of control and 94 % of control; the T/C (dose: 200.0 mg/kg/injection, schedule: Q04DX003 (ip), vehicle: carboxymethylcellulose (CMC)) was 104 % of control and 105 % of control. Besides, the T/C is 96 % of control and 103 % of control (dose: 400.0 mg/kg/injection, schedule: Q01DX001 (ip), vehicle: carboxymethylcellulose (CMC)); 108 % of control and 88 % of control (dose: 400.0 mg/kg/injection, schedule: Q04DX002 (ip), vehicle: carboxymethylcellulose (CMC)); 96 % of control and 100 % of control (dose: 400.0 mg/kg/injection, schedule: Q04DX003 (ip), vehicle: carboxymethylcellulose (CMC)).

On to `Cc1cc(C)c2ccc(N)nc2n1`, for which the T/C (dose: 9.5 mg/kg/injection, schedule: Q01DX001 (ip), vehicle: saline) is 86 % of control; the T/C (dose: 19.0 mg/kg/injection, schedule: Q01DX001 (ip), vehicle: saline) is 91 % of control; the T/C (dose: 38.0 mg/kg/injection, schedule: Q01DX001 (ip), vehicle: saline) is 101 % of control.

In the case of `O=C1C(Cl)=C(Cl)C(=O)N1CCCCCCN1C(=O)C(Cl)=C(Cl)C1=O`, the T/C (dose: 100.0 mg/kg/injection, schedule: Q04DX003 (ip), vehicle: Klucel (hydroxypropylcellulose) (HPC)) is 92 % of control; the T/C (dose: 200.0 mg/kg/injection, schedule: Q04DX003 (ip), vehicle: Klucel (hydroxypropylcellulose) (HPC)) was 87 % of control; the T/C (dose: 400.0 mg/kg/injection, schedule: Q04DX003 (ip), vehicle: Klucel (hydroxypropylcellulose) (HPC)) is 92 % of control.

On to `COc1cc(OC)c(OC)cc1/C=C/c1ccc2ccccc2n1`, for which the T/C is, setting by setting: under setting [1], 91 % of control; under setting [2], 100 % of control; under setting [3], 98 % of control.

With `CC(CN1CC(=O)NC(=O)C1)N1CC(=O)NC(=O)C1.[Cl][Pt][Cl]` (stereo not drawn), the T/C runs as follows: (dose: 12.5 mg/kg/injection, schedule: Q04DX003 (ip), vehicle: water) 106 % of control; (dose: 25.0 mg/kg/injection, schedule: Q04DX003 (ip), vehicle: water) 97 % of control; (dose: 50.0 mg/kg/injection, schedule: Q04DX003 (ip), vehicle: water) 109 % of control; (dose: 100.0 mg/kg/injection, schedule: Q01DX009 (ip), vehicle: water) 108 % of control; (dose: 100.0 mg/kg/injection, schedule: Q04DX003 (ip), vehicle: water) 106 % of control and 107 % of control; (dose: 200.0 mg/kg/injection, schedule: Q01DX009 (ip), vehicle: water) 121 % of control. The T/C was 101 % of control (dose: 200.0 mg/kg/injection, schedule: Q04DX003 (ip), vehicle: water); 160 % of control (dose: 400.0 mg/kg/injection, schedule: Q01DX009 (ip), vehicle: water); 118 % of control (dose: 400.0 mg/kg/injection, schedule: Q04DX003 (ip), vehicle: water).

On to `ClC1=C(Cl)C2CCC1C2`, for which the T/C is 88 % of control (dose: 25.0 mg/kg/injection, schedule: Q01DX009 (ip), vehicle: saline with Tween-80); 98 % of control under setting [4]; 96 % of control (dose: 100.0 mg/kg/injection, schedule: Q01DX005 (ip), vehicle: saline with Tween-80); 94 % of control and 98 % of control under setting [1]; 100 % of control (dose: 100.0 mg/kg/injection, schedule: Q04DX002 (ip), vehicle: saline with Tween-80); 92 % of control (dose: 200.0 mg/kg/injection, schedule: Q01DX005 (ip), vehicle: saline with Tween-80). For the same molecule, the T/C (dose: 200.0 mg/kg/injection, schedule: Q04DX002 (ip), vehicle: saline with Tween-80) is 100 % of control and the T/C (dose: 400.0 mg/kg/injection, schedule: Q01DX005 (ip), vehicle: saline with Tween-80) is 101 % of control.

As to `CCOC(=O)C(OCc1ccccc1)(C(=O)N1CCCCCC1=O)C(C)C` (stereo not drawn), the T/C is, setting by setting: under setting [1], 90 % of control; under setting [2], 90 % of control; under setting [3], 100 % of control.

In the case of `C[N+]1=C(C(=O)c2ccc(O)cc2)c2ccc(O)cc2CC1`, the T/C is 107 % of control (dose: 50.0 mg/kg/injection, schedule: Q01DX001 (ip), vehicle: saline); 106 % of control (dose: 100.0 mg/kg/injection, schedule: Q01DX001 (ip), vehicle: saline); 119 % of control (dose: 200.0 mg/kg/injection, schedule: Q01DX001 (ip), vehicle: saline).

As for `O=C1C(Cl)=CC(=NBr)C=C1Cl`, the T/C is, setting by setting: (dose: 12.5 mg/kg/injection, schedule: Q04DX002 (ip), vehicle: Klucel (hydroxypropylcellulose) (HPC)) 88 % of control; (dose: 25.0 mg/kg/injection, schedule: Q04DX002 (ip), vehicle: Klucel (hydroxypropylcellulose) (HPC)) 92 % of control; (dose: 50.0 mg/kg/injection, schedule: Q04DX002 (ip), vehicle: Klucel (hydroxypropylcellulose) (HPC)) 98 % of control.

`COc1ccccc1C1CC(C(C)(C)C)CCC1OS(=O)(=O)c1ccc(C)cc1` (stereo not drawn): the T/C reads like this: (dose: 50.0 mg/kg/injection, schedule: Q01DX009 (ip), vehicle: saline) 90 % of control; (dose: 100.0 mg/kg/injection, schedule: Q01DX009 (ip), vehicle: saline) 92 % of control; (dose: 100.0 mg/kg/injection, schedule: Q04DX003 (ip), vehicle: acetone) 102 % of control; (dose: 200.0 mg/kg/injection, schedule: Q01DX009 (ip), vehicle: saline) 95 % of control; (dose: 200.0 mg/kg/injection, schedule: Q04DX003 (ip), vehicle: acetone) 96 % of control; (dose: 400.0 mg/kg/injection, schedule: Q04DX003 (ip), vehicle: acetone) 94 % of control.

Turning to `CCOC(=O)C(CNc1cccc2ccncc12)C(=O)OCC`, the T/C is 109 % of control under setting [4], 94 % of control under setting [1] and 115 % of control under setting [2].

`CCCCCCCCCC=C(c1cccc2ccccc12)c1cccc2ccccc12`: the T/C runs as follows: (dose: 100.0 mg/kg/injection, schedule: Q01DX001 (ip), vehicle: other) 93 % of control; (dose: 200.0 mg/kg/injection, schedule: Q01DX001 (ip), vehicle: other) 96 % of control; (dose: 400.0 mg/kg/injection, schedule: Q01DX001 (ip), vehicle: other) 102 % of control.

As for `CCCCN(Cc1ccccc1)C(=O)Nc1ccccc1`, the T/C (dose: 100.0 mg/kg/injection, schedule: Q01DX009 (ip), vehicle: Klucel (hydroxypropylcellulose) (HPC)) was 97 % of control; the T/C (dose: 200.0 mg/kg/injection, schedule: Q01DX009 (ip), vehicle: Klucel (hydroxypropylcellulose) (HPC)) was 111 % of control; the T/C (dose: 400.0 mg/kg/injection, schedule: Q01DX009 (ip), vehicle: Klucel (hydroxypropylcellulose) (HPC)) is 100 % of control.
